Experiments:
Type in all cases: cell-based
[1] = system: MIA PaCa2 human pancreatic cancer cells with KRAS G12C mutation; assay: Cell experiment: anti-proliferative activity, CellTiter-Glo, MIA PaCa2; details: Homo sapiens, MIA PaCa-2, 120 h, 5 days culture
Description: (§1) This experiment is intended to verify that the compounds of the present invention have an inhibitory effect on the proliferation of NCI-H358 human non-small cell lung cancer cells with KRAS G12C mutation, MIA PaCa2 human pancreatic cancer cells with KRAS G12C mutation and wild-type A375 human malignant melanoma cells.
(§2) 40 μl of phosphate buffer was added to the peripheral wells of three 384-well microplates respectively, and 40 μl of cell suspension to be tested was added to the other wells of each plate respectively (plate 1: NCI-H358 cell suspension containing 500 NCI-H358 cells; plate 2: MIAPaCa2 cell suspension containing 300 MIAPaCa2 cells; plate 3: A375 cell suspension containing 300 A375 cells). The three cell plates were then placed in a carbon dioxide incubator and incubated overnight. Echo was used to perform a 3-fold gradient dilution of the compounds to be tested, and each compound was diluted with 10 concentration gradients (diluted from 50 μM to 0.003 μM), 100 nl of which was respectively added to the corresponding wells of the cell plates; after dosing, 40 μL of phosphate buffer was added to each well of rows A and P and columns 1 and 24, and then the cell plates were put back to the carbon dioxide incubator for culturing for 5 days. 20 μl of Promega CellTiter-Glo reagent per well was added to the cell plates, which was shaken at room temperature for 10 minutes in the dark to stabilize the luminescence signal. A PerkinElmer Envision multi-label analyzer was used for reading.
(§3) Data analysis: IC50 results were analyzed by GraphPad Prism 5.0 software […].

[2] = system: wild-type A375 human malignant melanoma cells; assay: Cell experiment: anti-proliferative activity, CellTiter-Glo, A375; details: Homo sapiens, A-375, 120 h, 5 days culture
Description: as §1, §2, §3

[3] = system: NCI-H358 human non-small cell lung cancer cells with KRAS G12C mutation; assay: Cell experiment: anti-proliferative activity, CellTiter-Glo, NCI-H358; details: Homo sapiens, NCI-H358, 120 h, 5 days culture
Description: as §1, §2, §3

## C=CC(=O)N1CCN(c2ncnc3c(=O)n(-c4c(N)c(Cl)cc(Cl)c4F)c(C(F)(F)F)cc23)CC1 [Example 49]
[1]
  IC50: 70 nM
[2]
  IC50: 7320 nM
[3]
  IC50: 50 nM
